The target in one experiment is T1, hPIEZO1 (Homo sapiens, UniProt Q92508).
T1 construct: expressed in transfected cells
Nature of the experiment: Intracellular Ca2+ measurement (Fura-2) in hPIEZO1-TREx cells. It counts as cell-based. Conditions: for Peak ΔCa2+i (ΔF340/380), median fold difference compared to Yoda1: 10 μM compound, hPIEZO1-TREx cells, paired with 10 μM Yoda1; for Ability to evoke intracellular Ca2+ elevation: 10 μM, cells overexpressing hPIEZO1, compared with Yoda1. The source says:
HEK T‐REx™ 293 cells (Thermo Fisher Cat #R71007, RRID:CVCL_D585) that overexpress hPIEZO1 upon induction with tetracycline were generated as previously described (Rode et al., [2017]). PIEZO1‐GFP was used as a PCR template to clone hPIEZO1 coding sequence into pcDNA™4/TO between HindIII and EcoRI restriction sites. PIEZO1 was amplified as two fragments using the following primers: (HindIII‐PIEZO1‐Fw: […] and BamHI‐Int.PIEZO1‐Rv: […]) and (BamHI‐Int. PIEZO1‐Fw: […] and EcoRI‐PIEZO1‐Rv: […]). The two fragments were fused using BamHI restriction site, resulting in the full‐length PIEZO1 coding sequence with the c4182a silent mutation. HEK T‐REx™ 293 cells (Invitrogen) were transfected with pcDNA4/TO‐PIEZO1 using Lipofectamine 2000 (Thermo Fisher Scientific). Subsequently, cells were treated with 10 μg·ml^−1 blasticidin and 200 μg·ml^−1 zeocin (InvivoGen) to select stably transfected cells. Single‐cell clones were isolated and analysed individually. Expression was induced by treating the cells for 24 h with 10 ng·ml^−1 tetracycline and analysed by quantitative RT‐PCR and Western blot. These cells are referred to as hPIEZO1‐TREx.
HEK 293‐TREx cells and their stably transfected derivatives or transiently transfected HEK 293 or HeLa cells were seeded at a density of 7.5 × 10^4 cells per well into poly‐D‐lysine‐coated 96‐well plates. The plates were either commercially pre‐coated with poly‐D‐lysine (Greiner Bio‐One #655946) or (Greiner Bio‐One #655090) were coated in‐house with 35 μl of a 10 μg·ml^−1 poly‐D‐lysine (Bio‐Techne, Cultrex # 3439‐100‐01) in sterile deionised water per well for at least 24 h and rinsed three times with 100 μl per well sterile D‐PBS before addition of cells. HUVECs were seeded into tissue culture‐treated 96‐well plates (Greiner Bio‐One #655090) at a density of either 2.5 × 10^4 cells 24 h before experimentation or 1.25 × 10^4 cells 48 h before experimentation. Cells were incubated with 2 μM Fura‐2‐AM (Molecular Probes™) in the presence of 0.01% (wt./vol.) pluronic F127 (Sigma‐Aldrich #P2443) in standard bath solution (SBS) for 1 h at 37°C. Cells were washed with SBS for 30 min at room temperature. Alternatively, if inhibitors were being tested, these were added at this time, immediately following a wash in SBS. (−)‐Englerin A (Akbulut et al., [2015]) was used in SBS containing 0.01% pluronic acid as a dispersing agent to minimise aggregation of compound. Unless otherwise stated, the final concentration of DMSO was 0.2% (vol./vol). Working 2000× stock solutions of test compounds were freshly made in DMSO and diluted 1000‐fold in SBS during the 30 min SBS wash/inhibitor pre‐incubation period to obtain 2× solutions for injection. When testing the highest concentration of Yoda1, KC159 and KC289 (30 μM), the final DMSO concentration was 0.6% (vol./vol.). Measurements were made at room temperature on a 96‐well fluorescence plate reader (FlexStation 3, Molecular Devices, Sunnyvale, CA, USA) controlled by SoftMax Pro software v7.0.3. Recipient wells containing 80 μl SBS/0.2% (vol./vol.) DMSO vehicle or inhibitor compound received 80 μl 2× compound at an injection rate of 1 μl·s^−1, and the pipette introduced liquids from a height setting of 70 μl. No trituration was performed. For recordings using Fura‐2, the change in intracellular Ca was indicated as the ratio of Fura‐2 emission (510 nm) intensities at 340 and 380 nm excitation. Photomultipliers were set to medium sensitivity. SBS contained 130 mM NaCl, 5 mM KCl, 8 mM D‐glucose, 10 mM HEPES, 1.2 mM MgCl2 and 1.5 mM CaCl2, and the pH was adjusted to 7.4 with NaOH. The solution was filtered through a 0.2 μm bottle‐top filter prior to use and handled aseptically thereafter.
For intracellular Ca^2+ (Ca^2+i) measurements, technical intra‐experiment replicates were used to improve confidence in the data. Analysis of individual experiments was performed to obtain mean ± SEM values. […]

The test system of another experiment is mouse portal vein. Briefly: Wire myography, relaxation of phenylephrine pre-constricted vein. Particulars: for Relaxation of portal vein: 0.1-10 μM, pre-constricted with 10 μM phenylephrine; for EC50: mouse portal vein pre-constricted with 10 μM phenylephrine, Hill fit. The protocol:
Mice were anaesthetised with isoflurane (5% induction and 1.5% maintenance) in 95% O2 according to Schedule 1 procedure approved by the UK Home Office. The portal vein was quickly dissected and placed in Krebs solution. The Krebs PV solution consisted of 118 mM NaCl, 4.7 mM KCl, 2.5 mM CaCl2, 1.2 mM KH2PO4, 1.2 mM MgSO4·7H2O, 25.2 mM NaHCO3 and 11.1 mM glucose. By means of a dissecting microscope, adhering perivascular tissue was carefully removed and the vein was cut into 1 mm segments.
Vein segments were mounted onto two thin stainless steel wires in an isometric myograph (Multi Wire Myograph System 620M from Danish Myograph Technology [DMT]), for which the force transducer was calibrated once per month according to the manufacturer's instructions. The recording chamber was filled with gassed Krebs solution (95% O2/5% CO2, pH 7.4). The segments were then stretched to a normalised internal diameter according to the manufacturer's instructions. The mounted rings were kept in a 5 ml chamber containing Krebs solution at 37°C and continuously bubbled with a gas mixture of 95% O2 and 5% CO2 (pH 7.4). After an equilibration period of 60 min, the contractile function of the vessel was tested by replacing the Krebs solution by 60 mM K^+ solution. Following washout, the vein was contracted once with 10 μM phenylephrine and then Yoda1, KC159 or KC289 was applied with the concentrations of 0.1 to 10 μM. The NOS inhibitor, L‐NAME, (100 μM), was pre‐incubated for 20 min before the PIEZO1 modulator.
Because the anticipated effect of test compounds was to cause vessel relaxation, phenylephrine was applied to induce tension and the maximum value of this tension was defined as 0% relaxation (no relaxation). The value of tension immediately prior to application of phenylephrine was defined as 100% relaxation. Data are normalised to these values because, otherwise, the intrinsic variability in the absolute amount of tension induced by phenylephrine obscured exploration of the relaxant effect of compounds.
OriginPro 2020 was used for the analysis of myography data. Myography traces show readings taken every 0.5 or 1 s and were smoothed with the Savitzky–Golay filter set to 70 points. To compare the agonistic activity of Yoda1 analogues, basal vessel tension prior to compound injection was subtracted. Maximal tension in the presence of PE alone was used to define 0% relaxation. The tension value prior to PE application was defined as 100% relaxation. Following the addition of test compounds, tension readings were taken at the last time point of the treatments and expressed as percentage relaxation.

The structures appear in SMILES notation.

T1 sequence (Q92508 whole entry): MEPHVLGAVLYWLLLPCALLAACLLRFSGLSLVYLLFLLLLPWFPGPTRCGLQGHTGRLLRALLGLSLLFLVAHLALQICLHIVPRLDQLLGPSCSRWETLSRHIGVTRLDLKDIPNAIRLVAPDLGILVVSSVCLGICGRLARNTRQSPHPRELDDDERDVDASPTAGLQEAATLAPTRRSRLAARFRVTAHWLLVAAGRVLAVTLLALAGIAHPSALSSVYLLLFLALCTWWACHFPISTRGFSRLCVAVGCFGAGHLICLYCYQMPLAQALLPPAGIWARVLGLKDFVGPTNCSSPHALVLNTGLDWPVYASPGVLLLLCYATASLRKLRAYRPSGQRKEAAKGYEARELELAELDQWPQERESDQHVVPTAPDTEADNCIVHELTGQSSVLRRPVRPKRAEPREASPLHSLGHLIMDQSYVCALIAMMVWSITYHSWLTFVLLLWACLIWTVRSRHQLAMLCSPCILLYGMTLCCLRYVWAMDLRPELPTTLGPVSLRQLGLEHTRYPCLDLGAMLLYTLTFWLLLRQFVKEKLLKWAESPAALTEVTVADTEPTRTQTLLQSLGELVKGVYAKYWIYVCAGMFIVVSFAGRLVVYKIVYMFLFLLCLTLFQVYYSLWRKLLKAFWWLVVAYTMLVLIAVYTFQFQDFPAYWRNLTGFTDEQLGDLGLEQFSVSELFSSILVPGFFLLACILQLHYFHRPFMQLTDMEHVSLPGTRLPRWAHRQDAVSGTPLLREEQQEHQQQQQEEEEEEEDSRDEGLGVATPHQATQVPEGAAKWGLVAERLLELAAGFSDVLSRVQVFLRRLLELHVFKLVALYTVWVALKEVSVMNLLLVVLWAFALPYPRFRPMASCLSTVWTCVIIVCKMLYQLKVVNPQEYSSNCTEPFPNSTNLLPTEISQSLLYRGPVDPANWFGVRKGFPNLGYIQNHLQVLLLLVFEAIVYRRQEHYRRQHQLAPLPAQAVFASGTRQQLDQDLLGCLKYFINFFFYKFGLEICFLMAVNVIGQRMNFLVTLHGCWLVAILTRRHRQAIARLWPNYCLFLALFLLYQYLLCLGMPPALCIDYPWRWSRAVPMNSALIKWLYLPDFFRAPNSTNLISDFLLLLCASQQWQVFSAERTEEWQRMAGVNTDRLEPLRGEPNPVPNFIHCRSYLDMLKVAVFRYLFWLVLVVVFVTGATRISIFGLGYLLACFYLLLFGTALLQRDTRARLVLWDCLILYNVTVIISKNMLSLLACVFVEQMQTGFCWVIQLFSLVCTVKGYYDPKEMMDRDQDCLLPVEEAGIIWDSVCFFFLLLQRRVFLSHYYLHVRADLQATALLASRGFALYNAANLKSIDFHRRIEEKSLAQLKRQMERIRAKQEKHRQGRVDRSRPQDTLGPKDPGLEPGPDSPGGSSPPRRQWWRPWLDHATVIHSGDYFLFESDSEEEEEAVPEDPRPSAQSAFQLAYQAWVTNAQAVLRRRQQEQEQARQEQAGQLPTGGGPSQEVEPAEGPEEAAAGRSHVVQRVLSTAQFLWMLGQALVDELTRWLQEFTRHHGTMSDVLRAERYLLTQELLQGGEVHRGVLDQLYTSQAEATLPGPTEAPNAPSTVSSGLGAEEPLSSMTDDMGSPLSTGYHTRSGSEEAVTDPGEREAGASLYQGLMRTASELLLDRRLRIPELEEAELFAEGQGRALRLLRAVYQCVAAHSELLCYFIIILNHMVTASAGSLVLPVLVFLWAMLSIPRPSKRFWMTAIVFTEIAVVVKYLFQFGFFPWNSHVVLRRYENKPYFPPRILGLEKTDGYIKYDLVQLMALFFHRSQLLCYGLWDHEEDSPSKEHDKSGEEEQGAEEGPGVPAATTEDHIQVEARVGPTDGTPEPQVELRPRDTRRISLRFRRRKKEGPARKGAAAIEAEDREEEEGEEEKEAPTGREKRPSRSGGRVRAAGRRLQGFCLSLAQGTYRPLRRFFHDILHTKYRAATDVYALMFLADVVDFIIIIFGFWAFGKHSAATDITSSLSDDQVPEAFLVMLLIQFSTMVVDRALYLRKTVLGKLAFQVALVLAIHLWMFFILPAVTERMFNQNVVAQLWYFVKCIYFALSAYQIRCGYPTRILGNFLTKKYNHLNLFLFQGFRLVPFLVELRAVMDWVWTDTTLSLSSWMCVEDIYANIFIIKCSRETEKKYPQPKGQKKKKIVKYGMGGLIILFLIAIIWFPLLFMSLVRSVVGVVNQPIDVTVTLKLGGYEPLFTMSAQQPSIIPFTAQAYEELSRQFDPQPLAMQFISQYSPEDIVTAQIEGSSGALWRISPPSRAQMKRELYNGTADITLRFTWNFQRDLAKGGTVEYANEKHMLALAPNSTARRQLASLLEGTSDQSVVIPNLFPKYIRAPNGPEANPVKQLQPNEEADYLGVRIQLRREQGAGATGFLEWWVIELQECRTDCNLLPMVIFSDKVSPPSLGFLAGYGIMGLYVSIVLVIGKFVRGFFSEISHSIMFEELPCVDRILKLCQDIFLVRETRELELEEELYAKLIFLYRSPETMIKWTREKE

As to `O=C([O-])c1ccc(-c2nnc(SCc3c(Cl)cccc3Cl)s2)cc1.[K+]` [KC289], at hPIEZO1, the “Peak ΔCa2+i (ΔF340/380), median fold difference compared to Yoda1” value is listed as “+2.8 fold” and the “Ability to evoke intracellular Ca2+ elevation” value is “robust responses that are larger than those of Yoda1”. In addition, in the experiment with mouse portal vein, the “Relaxation of portal vein” value was “concentration‐dependent relaxation”. A half-maximal response with mouse portal vein (Mus musculus) (EC50) required 1.2 µM. The “Relaxation in portal vein from PIEZO1ΔEC mice” value in the experiment on mouse portal vein (endothelial PIEZO1 deletion versus control mice) is “inhibited by endothelial PIEZO1 deletion”. Moreover, the “Relaxant effect after L-NAME” value with mouse portal vein (pre-incubation with 100 μM L-NAME) was “abolishes the relaxant effect”.

Regarding `O=C(O)c1ccccc1-c1nnc(SCc2c(Cl)cccc2Cl)s1` [KC157], the “Peak ΔCa2+i (ΔF340/380), median fold difference compared to Yoda1” value on hPIEZO1 is −24.4 fold.

For `O=C(O)c1ccc(-c2nnc(SCc3c(Cl)cccc3Cl)s2)cc1` [KC159], at hPIEZO1, the “Peak ΔCa2+i (ΔF340/380), median fold difference compared to Yoda1” value was “+1.8 fold” and the “Ability to evoke intracellular Ca2+ elevation” value is “robust responses that are larger than those of Yoda1”. In the experiment on mouse portal vein, the “Relaxation of portal vein” value is reported as “concentration‐dependent relaxation” and the response was half-maximal at 1.14 µM (EC50).

Regarding `Clc1cccc(Cl)c1CSc1nnc(-c2cnccn2)s1` [Yoda1, 2‐[5‐[[(2,6‐dichlorophenyl)methyl]thio]‐1,3,4‐thiadiazol‐2‐yl]pyrazine], in the experiment on mouse portal vein, the “Relaxation of portal vein” value is listed as “concentration‐dependent relaxation”.
